# pIC50: −log10 of the molar value.
# How the values were obtained:
# HCT116 NVL^R403W cells = assay: Cell viability counter-screen in compound-resistant HCT116 NVL^R403W cells; format: cell-based, human; conditions: Homo sapiens, HCT-116; NVL^R403W knock-in
# Description: Design and synthesis of benzothiazepine-based NVL inhibitors. […] Analogs were evaluated against the colorectal cancer cell line HCT116, and counter-screened against a compound resistant NVL2^R403W clone. Cytotoxicity in wild-type HCT116 was determined. […] Initial SAR focused on exploring the replacement of the furan ring of initial dibenzothiazepinone hit MM017. We first explored a wide variety of mono- and di-substituted phenyl rings, including a broad spectrum of functionality (F, Cl, alkyl, alkoxy, fluoroalkoxy, CN, formamide, S(O) Me, carboxyl, . . . ). […]
# HCT116 cells were transfected with TransIT-LT (Mirus #MIR2304) according to manufacturer's protocol with a guide RNA (either mock or NVL targeting) in the px330 vector (Addgene, #42230), and 10 nM single stranded deoxyoligonucleotide encoding a specific NVL mutation (see below for specific sequences). […] The resulting cells were evaluated by cresyl violet staining or collected and the relevant NVL mutations were analyzed by either amplicon or sanger sequencing.
# Cell viability assay: In 96-well assay plates (Corning #2903), 2,000 cells were plated per well in 100 μL of medium and allowed to adhere overnight. […] Luminescence (CellTiter-Glo) was recorded using a Synergy 2 microplate reader (BioTek). […]
# HCT116 NVL^WT tumors = assay: Efficacy study: HCT116 NVL wild type xenografts; format: in vivo, mouse; conditions: 35 mg/kg IP twice a day for 21 days
# Description: Having established the kinetics of MM927 mediated NVL inhibition in xenograft tumors, we administered 35 mg/kg MM927 IP twice a day for 21 days to mice harboring tumors derived from either HCT116 NVL wild type or NVL^R403W cells. […] Taken together, we concluded that the potent, and bioavailable analog MM927 reduces tumor growth in mouse xenografts by inhibiting NVL without toxicity.
# Efficacy study: Five million parental HCT116 cells or HCT116 NVL^R403W in a volume of 0.1 mL were implanted in the right flank. Tumor volumes were measured every 2 to 4 days with calipers. Volume is calculated as [(L*W^2)*3.14]/6. When volumes reached ˜110 mm^3, treatment was started with 35 mg/kg MM927 or vehicle control (0.2 mL/mouse) twice a day for 21 days. Mice were euthanized at the end of the 21-day treatment period or when any tumor reached 2 cm in its largest diameter, in agreement with the approved animal protocol. At the end of treatment, blood and tumor tissue were collected for pharmacokinetic analysis, measurement of complete blood counts, and blood chemistry measurements as described. Serum alanine transaminase and blood urea nitrogen were analyzed using VITROS MicroSlide technology.
# NVL = target: T1, NVL (Homo sapiens, UniProt O15381); assay: Viability of NVL^AID/AID cells relying on ectopic human NVL (Ph-IAA); format: cell-based; design: expressed in transfected cells; host or cells: HCT116 NVL^AID/AID cells (viral infection; 'mock infected' control); conditions: endogenous NVL degraded with Ph-IAA; read-out: IC50, cells expressing ectopic human NVL
# T1 sequence (O15381 1-856): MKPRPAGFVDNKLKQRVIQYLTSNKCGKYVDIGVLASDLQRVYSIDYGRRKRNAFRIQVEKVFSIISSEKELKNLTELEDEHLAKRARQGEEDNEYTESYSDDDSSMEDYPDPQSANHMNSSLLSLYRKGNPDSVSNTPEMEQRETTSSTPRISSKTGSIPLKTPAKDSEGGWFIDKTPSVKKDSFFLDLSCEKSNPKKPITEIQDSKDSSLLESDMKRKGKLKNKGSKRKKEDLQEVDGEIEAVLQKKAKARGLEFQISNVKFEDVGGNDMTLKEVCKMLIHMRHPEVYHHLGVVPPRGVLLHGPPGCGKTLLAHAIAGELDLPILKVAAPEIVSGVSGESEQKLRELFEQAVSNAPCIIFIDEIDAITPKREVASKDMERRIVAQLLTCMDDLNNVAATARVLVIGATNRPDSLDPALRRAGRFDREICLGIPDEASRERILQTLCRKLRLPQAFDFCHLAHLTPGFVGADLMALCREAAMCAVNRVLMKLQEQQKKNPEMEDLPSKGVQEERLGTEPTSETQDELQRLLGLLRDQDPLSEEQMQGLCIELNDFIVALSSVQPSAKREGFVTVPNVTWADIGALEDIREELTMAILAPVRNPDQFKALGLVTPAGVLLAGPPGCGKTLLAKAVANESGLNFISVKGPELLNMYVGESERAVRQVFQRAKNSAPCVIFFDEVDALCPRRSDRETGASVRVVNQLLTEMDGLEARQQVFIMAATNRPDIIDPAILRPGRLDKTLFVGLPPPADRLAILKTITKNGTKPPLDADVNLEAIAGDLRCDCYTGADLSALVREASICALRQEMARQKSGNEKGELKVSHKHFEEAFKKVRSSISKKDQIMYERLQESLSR
# Description: Next, we investigated whether inhibitors of NVL could inhibit the growth of cell line derived xenografts tumors in mice, and whether systemic inhibition of NVL leads to specific toxicities. […] To test the potency of MM927 against mouse NVL within the same cell type, we ectopically expressed either human or mouse NVL in NVL^AID/AID cells. Treatment with Ph-IAA degrades the endogenous protein so that the cells must rely solely on ectopically expressed NVL. In the mock infected cells, degrading NVL^AID/AID by the addition of Ph-IAA reduced cell viability as expected, and the viability was completely rescued by expression of either ectopic mouse or human NVL.
compound,measurement,setting,value
COCCN1C(=O)c2ccccc2Sc2cc(NC(=O)c3ccoc3)ccc21 [MM017],pIC50,HCT116 NVL^R403W cells,< 4.30
"CC#CCN1C(=O)c2ccc(F)cc2Sc2cc(NC(=O)c3ccc4oc(=O)n(C)c4c3)ccc21 [MM927, N-(10-(But-2-yn-1-yl)-3-fluoro-11-oxo-10,11-dihydrodibenzo[b,f][1,4]thiazepin-7-yl)-3-methyl-2-oxo-2,3-dihydrobenzo[d]oxazole-5-carboxamide]","endpoint tumor burden, NVL WT",HCT116 NVL^WT tumors,significantly reduced NVL WT tumor burden
same,rate of growth of NVL^WT tumors,HCT116 NVL^WT tumors,significantly reduced the rate of growth
same,pIC50,NVL,7.29

# — US20260097047A1, “Small molecule inhibitors of the ribosome biogenesis factor NVL2” (Board of Regents, The University of Texas System, priority 2023, published 2026)
